Key:
[1] = test system: human stomach cancer cell line SNU-16; assay: cells; conditions: SNU-16, 72 h, read-out: SNU-16 (IC50 (nM))
Experimental: Then, 10 μL of Cell Counting Kit-8 (Dojindo Laboratories, CK04) was added to each well, and the resultant was incubated for 1 to 2 hours in a 5% CO2 incubator (37° C.) to cause a color reaction. The absorbance value was measured with ENVISION™ (PerkinElmer Co., Ltd.) at 450 nm. Absorbance value of the wells without adding the test substance was defined as 100% and the absorbance value of the wells containing no cells was defined as 0%. Then, an absorbance ratio in the presence of the test substance was calculated.

[2] = test system: SNU-16 subcutaneous xenograft; assay: Antitumor effect in SNU-16 subcutaneous xenograft model in mice; type: in vivo; conditions: nude mice, tumor volume on last day
Experimental: Human stomach cancer cell line SNU-16, which had been cultured in an RPMI-1640 medium containing 10% FBS, and penicillin/streptomycin, were adjusted to a concentration of 1×10^8 cells/mL with Hanks' Balanced Salt Solution (GIBCO #24020) to prepare a cell suspension, and the suspension was mixed with MATRIGEL (BD Biosciences, Cat#354234) in a ratio of 1:1 to prepare a cell suspension in a concentration of 5×10^7 cells/mil. The cell suspension was inoculated in a volume of 100 μL into a subcutaneous part of a right flank of nude mice, 6 to 7 weeks of ages (BALB/cAJcl-nu/nu, female, Clea Japan Inc.). Seven days after cell inoculation, the shortest diameter and the longest diameter of a tumor in each mouse were measured by using an electronic digital caliper (Digimatic™ caliper, Mitutoyo Corporation), so as to calculate the volume of the tumor in accordance with the following calculation formula: Tumor volume (mm^3)=Longest diameter (mm)×Shortest diameter (mm)×Shortest diameter (mm)/2
On the basis of the volumes of tumors obtained on the first day of administration, the nude mice were grouped such that averages of the tumor volumes were substantially equal among the groups. Each test substance was dissolved in DMSO, Tween 80 was added thereto to prepare a solution in a 10-fold concentration and the thus prepared solution was stored at the freezer before use. Immediately before the administration, the stock solution was diluted with a 5% glucose solution to obtain a final administration solution (in which a ratio in % among DMSO, Tween 80 and the 5% glucose solution was 3.5:6.5:90). Each evaluation sample was orally administered to test substance administration group at a volume of 20 mL/Kg once a day continuously for 11 days, and in a control group, an administration solvent was orally administered under the same conditions. Incidentally, the experiment was conducted on groups each consisting of 5 mice.
With respect to each of the control group and test substance administration group, a ratio of the weight measured on the final day to the weight measured on the first day (relative body weight: RBW) was calculated. If a ratio of the RBW of the test substance administration group/the RBW of the control group is 0.9 or more, the corresponding test substance administration group was defined as a well-tolerated. In the test substance administration group thus defined as well-tolerated, a ratio of the tumor volume of the test substance-dosing group to the tumor volume of the control group obtained on the last day (T/C) (%) was calculated, and shown in Table 3.

How did the IC50 [1] turn out when `CNC(=O)n1ccc2cc(Oc3ccnc(NC(=O)c4ccc(C5CCN(CCO)CC5)cc4)c3)c(OCCOC)cc21` [Compound (I), 5-({2-[({4-[1-(2-hydroxyethyl)piperidin-4-yl]phenyl}carbonyl)amino]pyridin-4-yl}oxy)-6-(2-methoxyethoxy)-N-methyl-1H-indole-1-carboxamide] was run?
Its IC50 is 4.2 nM.

And the “T/C (%)” value ([2]; 6.25 mg/kg orally once a day for 11 days)?
The value was 49%.

And the “T/C (%)” value ([2]; 12.5 mg/kg orally once a day for 11 days)?
The value was 26%.

And the “T/C (%)” value ([2]; 25 mg/kg orally once a day for 11 days)?
Its value is 16%.

And the “T/C (%)” value ([2]; 50 mg/kg orally once a day for 11 days)?
The value was 7%.

— patent US9951047B2, “Salt of monocyclic pyridine derivative and crystal thereof” (Eisai R&D Management Co., Ltd., priority 2014, dated 2018)
